Test results taken from patent US7772180B2, “Hepatitis C virus inhibitors” (Bristol-Myers Squibb Company, priority 2006, dated 2010).

Biological target: T1, HCV NS3/4A protease complex, H77 strain (Hepatitis C virus genotype 1a, UniProt P27958, C1454S/C1711G)
T1 construct: DNA encoding the recombinant HCV NS3/4A protease complex (amino acids 1027 to 1711) for these strains; made in house; host or cells: Escherichia coli BL21 (DE3), pET21b
Assay: FRET peptide assay to monitor HCV NS3/4A proteolytic activity (H77 strain)
Type: biochemical
Conditions: read-out: IC50 against the NS3/4A H77 strain
Description: HCV NS3 protease complexes, derived from the BMS strain, H77 strain or J4L6S strain, were generated, as described below. These purified recombinant proteins were generated for use in a homogeneous assay (see below) to provide an indication of how effective compounds of the present disclosure would be in inhibiting HCV NS3 proteolytic activity.
Serum from an HCV-infected patient was obtained from Dr. T. Wright, San Francisco Hospital. An engineered full-length cDNA (compliment deoxyribonucleic acid) template of the HCV genome (BMS strain) was constructed from DNA fragments obtained by reverse transcription-PCR (RT-PCR) of serum RNA (ribonucleic acid) and using primers selected on the basis of homology between other genotype 1a strains. From the determination of the entire genome sequence, a genotype 1a was assigned to the HCV isolate according to the classification of Simmonds et al. (See P Simmonds, K A Rose, S Graham, S W Chan, F McOmish, B C Dow, E A Follett, P L Yap and H Marsden, J. Clin. Microbiol., 31(6), 1493-1503 (1993)). […]

T1 sequence (P27958 1027-1711 C1454S/C1711G, one chain of several): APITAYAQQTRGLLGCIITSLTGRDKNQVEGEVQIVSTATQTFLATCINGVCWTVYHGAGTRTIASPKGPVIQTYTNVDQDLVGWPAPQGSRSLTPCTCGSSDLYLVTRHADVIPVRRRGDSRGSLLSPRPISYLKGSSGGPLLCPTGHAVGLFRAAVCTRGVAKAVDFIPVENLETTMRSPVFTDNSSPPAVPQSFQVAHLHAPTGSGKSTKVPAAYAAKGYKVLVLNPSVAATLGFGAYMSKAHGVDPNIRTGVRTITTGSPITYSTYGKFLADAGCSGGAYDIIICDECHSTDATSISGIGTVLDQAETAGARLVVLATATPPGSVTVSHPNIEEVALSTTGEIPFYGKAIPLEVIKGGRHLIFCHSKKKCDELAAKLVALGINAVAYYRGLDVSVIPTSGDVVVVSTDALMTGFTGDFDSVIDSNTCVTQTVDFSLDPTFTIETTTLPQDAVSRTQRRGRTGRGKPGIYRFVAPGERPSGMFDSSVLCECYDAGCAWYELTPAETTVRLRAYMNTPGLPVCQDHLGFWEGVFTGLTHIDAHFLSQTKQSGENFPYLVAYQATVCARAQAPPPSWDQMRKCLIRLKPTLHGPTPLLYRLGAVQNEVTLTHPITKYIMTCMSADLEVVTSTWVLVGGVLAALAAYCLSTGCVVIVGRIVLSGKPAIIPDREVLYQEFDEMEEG

## C=C[C@@H]1C[C@]1(NC(=O)[C@@H]1C[C@@H](Oc2nc(N(C)C)cc3cc(OC)ccc23)CN1C(=O)C(Nc1cc(C)cc(C)n1)C(C)(C)C)C(=O)NS(=O)(=O)C1CC1 (single isomer, unassigned) [Compound 18]
  IC50: 1.2 nM
